Data as given in patent publication US5270316A, “Condensed purine derivatives” (Kyowa Hakko Kogyo Co., Ltd., priority 1989, dated 1993).
Read-outs that look alike come from different tables or passages of the source.

Columns and labels:
[1] = Diuretic activity (oral, urine collected for 6 hours); assay type: in vivo, rat (Wistar male rats); conditions: Rattus norvegicus, rats; for response vs control in vivo at 25 mg/kg: 25 mg/kg oral; for response vs control in vivo at 6.25 mg/kg: 6.25 mg/kg oral
Procedure: Wistar male rats weighing 150 to 300 g were used after they were fasted for 18 hours. A test compound or saline (control) was orally administered to rats and urine was collected for 6 hours. The test was performed using 3 groups per the test compound, and each group consists of 3 animals. The urine was metered by a measuring cylinder and electrolytes (Na^+ and K^+) in the urine were assayed with a flame photometer (model […] manufactured by Hitachi Ltd.). Parameters in Table 3 are all expressed by relative value for control.

Experimental asthma = Experimental asthma (collapse time after antigen aerosol); assay type: in vivo, guinea pig (Hartley male); conditions: 50 mg/kg oral, passively sensitized guinea pigs, 1.5% EWA aerosol; control 254 ± 18
Procedure: Guinea pigs were passively sensitized as follows. Hartley male guinea pigs weighing 350 to 500 g were intraperitoneally injected with 1 ml of rabbit anti-egg alubmin (EWA) serum prepared by the method of Koda et al. [Folia pharmacol., Japon, 66, 237 (1970)]. The animals were treated with intraperitoneal injection of diphenhydramine (20 mg/kg) and propranolol (5 mg/kg), 30 minutes before administration of test compounds. 17 hours after the sensitization, the test compounds (50 mg/kg) or saline (control) were orally administered to sensitized animals. After one hour from the administration of the test compounds, the guinea pigs were placed in plastic observation box and were exposed to an aerosal antigen of 1.5% EWA.
The time until the onset of respiratory distress-like symptom [collapse time (second)] was measured as a result of experimental asthma.

trachea = experiment: Passive Schultz-Dale reaction (bronchodilatory effects), relaxation of sensitized trachea strips; parameters: species or system guinea pig (Hartley male); conditions: Cavia porcellus; sensitized guinea pig trachea, EWA 1 μg/ml, 37° C.; read-out: Passive S-D reaction IC50 (concentration of 50% relaxation rate)
Procedure: Guinea pigs were passively sensitized as follows. […] After 24 hours, the guinea pigs were stunned and exsanguinated, and then trachea was excised. The zig-zag strips of the trachea were prepared by the method of Emmerson and Mackay [J. Pharm. […] After the contraction curves reached plateau the compounds were successively added in order to get cumulative concentration-relaxation curves.

[2] = Acute toxicity, minimum lethal dose (oral, mice); assay type: in vivo; conditions: male dd-mice, mortality observed for seven days
Procedure: The compounds were orally administrated to male dd-mice weighing 20±1 g. Minimum lethal dose (MLD) was determined by observing the mortality for seven days after the administration.

[3] = J. Med. Chem., 23, 1188 (1980); cited from earlier work
[4] = tested on: Platelet Activating Factor (PAF)-induced mortality; experiment: Inhibition of Platelet Activating Factor (PAF)-induced mortality; assay type: in vivo, mouse (male dd mice); conditions: Mus musculus, 2 h, oral, mice, one hour before PAF 40 μg/kg i.v., p<0.05 vs control, read-out: PAF-induced mortality inhibition, minimum effective dose (MED)
Procedure: The experiment was performed by a minor modification of method of Carlson et al. [Agents and Actions, 21, 379 (1987)]. Groups each consisting of 10 male dd mice (weighing 28 to 32 g) were used, and 100 mg/kg of test compound or a saline (control) was orally administrated. One hour after the administration of test compound, 40 μg/kg of PAF (manufactured by Avanti Polar Lipids Co., Ltd.) was intravenously administered. Two hours after PAF injection, the mortality rate of the animals was observed.

[5] = tested on: Glycerol-induced Renal Deficient Model; experiment: Renal protecting activity (glycerol-induced renal deficient model): serum creatinine and urea nitrogen; assay type: in vivo, rat (Wistar male rats); conditions: 10 mg/kg intraperitoneal, rats, 24 hours after glycerol injection; own control beside each compound; normal control 0.50
Procedure: It is well known that subcutaneous or intramuscular administration of glycerol to rat induce acute renal insufficiency characterized by renal tubular disturbance [Can J. Physiol.
Wistar male rats (fasted both food and water for 18 hours) were used. A test compound or saline (control) was intraperitoneally administered (dose: 10 mg/kg) to rats. After 30 minutes rats were anesthesized with ether and the back skin was picked up and 0.8 ml/100 g of 50% glycerol was subcutaneously administered. 24 hours after the glycerol injection, the rats were anesthesized with ether and 5 ml of the blood was collected from the descending aorta. To obtain the serum, after allowing it to stand for 30 minutes or longer, the blood sample was centrifuged at 3000 rpm for 10 minutes. Creatinine in the serum sample was determined using autoanalyzer (AU510, Olympus) or clinical analysis kit of creatinine (Creatinine Test Wako; by Wako Pure Chemical Ind., Japan). Urea nitrogen in the serum was determined using autoanalyzer (AU510; made by Olympus Optical Co., Ltd, Japan) or clinical analysis kit of urea nitrogen (Urea nitrogen test wako; by Wako Pure Chemical Ind., Japan).

[6] = relative value for control (1.00), read-out: Na+/K+
[7] = relative value for control, read-out: Excretion of K+
[8] = relative value for control, read-out: Excretion of Na+
[9] = relative value for control, read-out: Urine volume

CCCN1C(=O)N2C(=NCC2c2ccccc2)c2c1ncn2C (centres unmarked) [Compound 5, 1-Methyl-7-phenyl-4-n-propyl-1,4,7,8-tetrahydro-5H-imidazo[2,1-i]purin-5-one]
response vs control in vivo at 25 mg/kg [1, 6]: 167%
response vs control in vivo at 25 mg/kg [1, 7]: 77%
response vs control in vivo at 25 mg/kg [1, 8]: 197%
response vs control in vivo at 25 mg/kg [1, 9]: 165%
Experimental asthma, collapse time (Experimental asthma): 542 ± 36 s
IC50 (trachea): 32 µM
Minimum lethal dose (MLD) [2]: > 300 mg/kg

O=C1N2CCN=C2c2[nH]cnc2N1Cc1ccc(Cl)cc1 [formula (A)]
bronchodilatory effect [3]: slight bronchodilatory effect

Cn1c(=O)c2[nH]cnc2n(C)c1=O [Theophylline, reference compound]
minimal effective dose [4]: 100 mg/kg
Experimental asthma, collapse time (Experimental asthma): 414 ± 47 s
IC50 (trachea): 23 µM

Cn1cnc2c1C1=NCCN1C(=O)N2Cc1ccccc1 [10 Sa]
Experimental asthma, collapse time (Experimental asthma): 357 ± 65 s
IC50 (trachea): 9.7 µM
Minimum lethal dose (MLD) [2]: > 300 mg/kg

CCCN1C(=O)N2CC(C(C)C)N=C2c2[nH]c(C3CCCC3)nc21 (centres unmarked) [13 Sa]
response vs control in vivo at 6.25 mg/kg [1, 6]: 163%
response vs control in vivo at 6.25 mg/kg [1, 7]: 18%
response vs control in vivo at 6.25 mg/kg [1, 8]: 92%
response vs control in vivo at 6.25 mg/kg [1, 9]: 140%
Experimental asthma, collapse time (Experimental asthma): 374 ± 76 s

CCCN1C(=O)N2CCN=C2c2[nH]cnc21 [Compound 2, 4-n-Propyl-1,4,7,8-tetrahydro-5H-imidazo[2,1-i]purin-5-one]
Creatinine in serum, glycerol treated, test compound administrated [5]: 1.63 ± 0.19 mg/dL
minimal effective dose [4]: 100 mg/kg
Experimental asthma, collapse time (Experimental asthma): 552 ± 20 s
IC50 (trachea): 21 µM
